Reference: patent publication US7094561B2, “Method of monitoring the menstrual cycle and/or pregnancy in a female” (University of Guelph, priority 2000, dated 2006)

Columns and labels:
[1] = test system: high endothelial venules (HEV) of peripheral lymph nodes (PLN); experiment: Adhesion under shear of human PBL to PLN HEV in frozen sections from hormone-treated ovariectomized mice; type: in vivo, mouse; settings: for L-selectin-dependent and α4 integrin-dependent lymphocyte adhesion to endothelium of secondary lymphoid tissues, compared to pregnancy: hormone-treated Ovx mice versus pregnant mice, shear flow
Source text: (§1) C57BI/6J (Jackson Laboratory, Bar Harbor, Me.) and Balb/c (Taconic, Germantown, N.Y.) mice, aged 7–8 wk were studied. Some females were used for timed matings with the morning of the copulation plug designated gd 0. Other females (n=34) were surgically ovariectomized under Avertin anaesthesia (24). Females were rested 6 days and then received daily subcutaneous injections of either hormone dissolved in sesame oil or sesame oil alone between 9.00–11.00 a.m. as indicated in FIG. 2.^81-84 Some of the Ovx hormone-treated mice also had 10 μl sterile sesame oil injected into a uterine horn to induce decidualization 48 h prior to euthanasia. Ovx mice were euthanized 24 hours after receiving their last injection and vaginal smears were collected and stained with Wright-Giemsa to confirm treatment success. Non-pregnant (NP) controls were virgin females who had never been paired with males. All procedures were performed under appropriate animal utilization protocols. The following samples were collected from each mouse and embedded in OCT (Miles Laboratories) for cryosectioning: i) a pool of 10–12 PLN from subcutaneous and intermuscular sites; ii) a pool of 10–12 intestinal PP; iii) the entire pancreas; and iv) the uterus. For some experiments, the median iliac lymph nodes that drain the pelvic organs, including the uterus, were also dissected. Non-decidualized uteri were trimmed at the ovarian and cervical ends, then incised longitudinally along one side on an axis midway between the mesometrial and anti-mesometrial aspects. The mesometrium (the mesentery suspending the uterus, also known as the broad ligament) was not removed and served as a positional landmark during analyses. For embedding, samples were oriented to produce full thickness longitudinal sections that included both antimesometrial and mesometrial sides. Uteri from gd 3 were flushed for blastocysts to confirm pregnancy. The cell suspensions evaluated for adhesive interactions with endothelium were human peripheral blood lymphocytes (PBL) isolated from random (female and male) normal donor buffy coat leukocyte concentrates (American Red Cross, Rochester, N.Y.);^85,68 and TK-1 cells (an alpha integrin^high, L-selectin^low mouse T lymphoma cell line).^85 In selected experiments, human PBL were cultured 6 hr at 37° C. or 40° C. before being applied to tissue sections, as previously described^12. In all assays, some cell aliquots were incubated with function blocking mAb specific for human L-selectin (DREG-56, American Type Cell Collection [ATCC], Manassas, Va., 10 μg/ml) or human alpha4 integrin (HP2/1, Coulter Immunology, Hialeah, Fla., 10 μg/ml). To identify adherent human NK cells, PBL aliquots were pre-labeled with anti-CD56 mAb (NKG1, Coulter Immunology, diluted 1:100) followed by rabbit anti-mouse Ig-rhodamine isothiocynate (RITC) Ab as described previously (10;29). Control aliquots were treated with the secondary reagent alone. […] Following removal of non adherent cells, glutaraldehyde-fixed specimens were stained with 0.5% toluidine blue and adhesion was scored on 300–500 HEV/PLN or PP specimen or equivalent numbers of small vessels in pancreatic tissue. When CD56-pre-labeled cells were used, fluorescent cells were quantified in 10 high power fields (HPF; one HPF=5 mm^2) at 200× magnification using an Olympus BH2/RFL fluorescence microscope (Olympus Optical, Tokyo, Japan) (10;29). […]

[2] = test system: pancreas endothelium; experiment: Adhesion of PBL or TK-1 cells to pancreas endothelium from hormone-treated ovariectomized mice; type: in vivo, mouse; settings: tissue from hormone-treated Ovx mice
Source text: C57BI/6J (Jackson Laboratory, Bar Harbor, Me.) and Balb/c (Taconic, Germantown, N.Y.) mice, aged 7–8 wk were studied. Some females were used for timed matings with the morning of the copulation plug designated gd 0. Other females (n=34) were surgically ovariectomized under Avertin anaesthesia (24). Females were rested 6 days and then received daily subcutaneous injections of either hormone dissolved in sesame oil or sesame oil alone between 9.00–11.00 a.m. as indicated in FIG. 2.^81-84 Some of the Ovx hormone-treated mice also had 10 μl sterile sesame oil injected into a uterine horn to induce decidualization 48 h prior to euthanasia. […]
The cell suspensions evaluated for adhesive interactions with endothelium were human peripheral blood lymphocytes (PBL) isolated from random (female and male) normal donor buffy coat leukocyte concentrates (American Red Cross, Rochester, N.Y.);^85,68 and TK-1 cells (an alpha integrin^high, L-selectin^low mouse T lymphoma cell line).^85 In selected experiments, human PBL were cultured 6 hr at 37° C. or 40° C. before being applied to tissue sections, as previously described^12. […] Following removal of non adherent cells, glutaraldehyde-fixed specimens were stained with 0.5% toluidine blue and adhesion was scored on 300–500 HEV/PLN or PP specimen or equivalent numbers of small vessels in pancreatic tissue. […]

[3] = test system: uterine tissue; experiment: Adhesion of CD56-labeled human PBL to uterine tissue from hormone-treated ovariectomized mice; type: in vivo, mouse; settings: for adhesion of CD56bright human lymphocytes to uterine tissue: uteri from Ovx mice treated with hormone, versus placebo-treated Ovx or virgin
Source text: as §1, with “Uteri from gd 3 were flushed for blastocysts to confirm pregnancy.” left out, “described^12.” for “described^12. In all assays, some cell aliquots were incubated with function blocking mAb specific for human L-selectin (DREG-56, American Type Cell Collection [ATCC], Manassas, Va., 10 μg/ml) or human alpha4 integrin (HP2/1, Coulter Immunology, Hialeah, Fla., 10 μg/ml). To identify adherent human NK cells, PBL aliquots were pre-labeled with anti-CD56 mAb (NKG1, Coulter Immunology, diluted 1:100) followed by rabbit anti-mouse Ig-rhodamine isothiocynate (RITC) Ab as described previously (10;29). Control aliquots were treated with the secondary reagent alone.”

[4] = test system: high endothelial venules (HEV) of Peyer's Patches (PP); experiment: Adhesion under shear of TK-1 cells to Peyer's Patch HEV from hormone-treated ovariectomized mice; type: in vivo, mouse; settings: tissue from Ovx mice treated with hormone, versus placebo or virgin controls
Source text: C57BI/6J (Jackson Laboratory, Bar Harbor, Me.) and Balb/c (Taconic, Germantown, N.Y.) mice, aged 7–8 wk were studied. Some females were used for timed matings with the morning of the copulation plug designated gd 0. Other females (n=34) were surgically ovariectomized under Avertin anaesthesia (24). Females were rested 6 days and then received daily subcutaneous injections of either hormone dissolved in sesame oil or sesame oil alone between 9.00–11.00 a.m. as indicated in FIG. 2.^81-84 Some of the Ovx hormone-treated mice also had 10 μl sterile sesame oil injected into a uterine horn to induce decidualization 48 h prior to euthanasia. […] The cell suspensions evaluated for adhesive interactions with endothelium were human peripheral blood lymphocytes (PBL) isolated from random (female and male) normal donor buffy coat leukocyte concentrates (American Red Cross, Rochester, N.Y.);^85,68 and TK-1 cells (an alpha integrin^high, L-selectin^low mouse T lymphoma cell line).^85 In selected experiments, human PBL were cultured 6 hr at 37° C. or 40° C. before being applied to tissue sections, as previously described^12. […] Following removal of non adherent cells, glutaraldehyde-fixed specimens were stained with 0.5% toluidine blue and adhesion was scored on 300–500 HEV/PLN or PP specimen or equivalent numbers of small vessels in pancreatic tissue. […]

[5] = test system: human lymphocytes; experiment: Effect of blood collection anti-coagulant on adhesion of human lymphocytes to LN from pregnant mice; type: cell-based; settings: blood collected into the anti-coagulant
Experimental: Male and female subjects of legal age and in good health were recruited to donate up to 30 ml of blood, using venipuncture into evacuated, sterile blood collection tubes. All subjects were informed about the risks of participation in this study and signed approved informed consent forms. The blood was layered onto an equal volume of Histopaque 1.077 (Sigma) and centrifuged at 400×g for 30 min at RT according to manufacturers instructions. The cells at the interface were collected, washed thrice and counted.
The effects of anti-coagulants on adhesive properties of isolated PBL were assessed. Ten ml of blood was collected by venipuncture (40 ml collected per subject) into sterile evacuated tubes containing either Acid Citrate Dextrose (ACD), EDTA, Sodium Citrate, or heparin. Lymphocytes were isolated as described above and applied to sections of LN from pregnant mice. The sections were assessed for lymphocyte adhesion by microscopy.

[6] = test system: uterine artery and decidua; settings: alymphoid mice, daily 100–1000 IU/6 days; cited from earlier work

Molecule: C[C@]12CC[C@@H]3c4ccc(O)cc4CC[C@H]3[C@@H]1CC[C@@H]2O [E2, 17-beta estradiol]
- L-selectin-dependent and α4 integrin-dependent lymphocyte adhesion to endothelium of secondary lymphoid tissues, compared to pregnancy [1]: fully mimicked the functional gains in adhesion promoted by pregnancy
- L-selectin-dependent and α4 integrin-dependent lymphocyte adhesion to endothelium of secondary lymphoid tissues, compared to pregnancy ([1]; listed as estrogen): equivalent to pregnancy
- adhesion of PBL or TK1 cells to pancreas [2]: no effect
- adhesion of PBL or TK1 cells to pancreas ([2]; listed as estrogen): no increase
- adhesion of CD56bright human lymphocytes to uterine tissue [3]: equivalent functional changes
- percentage of CD56bright cells among lymphocytes adhering to uterine tissue (enrichment) ([3]; uterine tissue from mouse receiving hormone therapy, starting preparation 2–3% CD56bright): 70%

Molecule: CC(=O)[C@H]1CC[C@H]2[C@@H]3CCC4=CC(=O)CC[C@]4(C)[C@H]3CC[C@]12C [P4, progesterone]
- L-selectin-dependent and α4 integrin-dependent lymphocyte adhesion to endothelium of secondary lymphoid tissues, compared to pregnancy [1]: fully mimicked the functional gains in adhesion promoted by pregnancy
- L-selectin-dependent and α4 integrin-dependent lymphocyte adhesion to endothelium of secondary lymphoid tissues, compared to pregnancy ([1]; listed as progesterone): equivalent to pregnancy
- L-selectin-dependent adhesion of human PBL to PLN HEV ([1]; tissue from Ovx mice treated with hormone, versus placebo (oil) or virgin controls): enhanced L-selectin-dependent binding
- alpha4 integrin/MAdCAM-1-dependent TK-1 cell adhesion to PP HEV [4]: enhanced, progesterone-dependent, and α4 integrin-dependent, binding
- adhesion of CD56bright human lymphocytes to uterine tissue [3]: equivalent functional changes
- adhesion of CD56bright human lymphocytes to uterine tissue ([3]; listed as progesterone): promoted

Molecule: O=C([O-])CC(O)(CC(=O)[O-])C(=O)[O-].[Na+].[Na+].[Na+] [sodium citrate]
- adhesion of isolated human lymphocytes to LN from pregnant mice [5]: did not interfere with adhesion

Molecule: Tumor necrosis factor-alpha
- uterine artery modification and decidua [6]: lacked these effects

B1: recombinant mulFN-γ: recombinant murine interferon-gamma (protein, UniProt P01580 23-155, looked up)
Interferon gamma: HGTVIESLESLNNYFNSSGIDVEEKSLFLDIWRNWQKDGDMKILQSQIISFYLRLFEVLKDNQAISNNISVIESHLITTFFSNSKAKKDAFMSIAKFEVNNPQVQRQAFNELIRVVHQLLPESSLRKRKRSRC
- uterine artery modification and decidua [6]: promoted full uterine artery modification and normalized deciduas
